Results: patent publication US20060019907A1, “Guggulsterone: an inhibitor of nuclear factor - kappaB and IkappaBalpha kinase activation and uses thereof” (Research Development Foundation, priority 2004, published 2006)
Each block holds one molecule with its values, some of them ahead of it.

How the values were obtained:
[1] = tested on: U937 cells; test: Cytotoxicity (MTT uptake) of guggulsterone with JNK inhibitor; format: cell-based, human; conditions: 72 h
Procedure: Cytotoxicity assay. The cytotoxic effects of guggulsterone was determined by the MTT uptake method. Briefly, 5000 cells were incubated with guggulsterone in triplicate in a 96-well plate at 37° C. MTT solution was then added to each well. After a 2-h incubation at 37° C., extraction buffer (20% SDS, 50% dimethylformamide) was added, the cells were incubated overnight at 37° C., and the OD was then measured at 570 nm using a 96-well multiscanner (Dynex Technologies, MRX Revelation, Chantilly, Va.).

[2] = biological target: NF-κB p65 subunit (RelA) in nuclear extracts of TNF-treated human H1299 cells (human, UniProt Q04206 1-551); test: EMSA supershift assay, nuclear extracts of TNF-treated H1299 cells
Procedure: Nuclear extracts were prepared and tested for NF-κB activation. […] H1299 cells (2×10⁶/ml) were pre-incubated with 50 μM guggulsterone for the indicated times at 37° C. and then treated with 0.1 nM TNF for 30 min at 37° C. Nuclear extracts were prepared and then tested for NF-κB activation. […] Nuclear extracts from H1299 cells (2×10⁶/ml) treated or not treated with 0.1 nM TNF for 30 min were incubated with the antibodies indicated for 30 min at room temperature, and the complex was analyzed by supershift assay. […] Nuclear extracts from H1299 cells (2×10⁶/ml) treated or not treated with 0.1 nM TNF for 30 min were treated with the indicated concentrations of guggulsterone for 4 hours at room temperature and then assayed for DNA binding by EMSA.
NF-κB Activation: To determine NF-κB activation, EMSA was carried out as previously described (Chaturvedi et al., 2000). […] For supershift assays, nuclear extracts prepared from TNF-treated cells were incubated with antibodies against either the p50 or the p65 subunit of NF-κB for 30 min at room temperature before the complex was analyzed by EMSA. The dried gels were visualized, and radioactive bands were quantitated using a PHOSPHORIMAGER™ (Molecular Dynamics, Sunnyvale, Calif.) using IMAGEQUANT™ software.

Sequence of NF-κB p65 subunit (RelA) in nuclear extracts of TNF-treated human H1299 cells (Q04206 whole entry): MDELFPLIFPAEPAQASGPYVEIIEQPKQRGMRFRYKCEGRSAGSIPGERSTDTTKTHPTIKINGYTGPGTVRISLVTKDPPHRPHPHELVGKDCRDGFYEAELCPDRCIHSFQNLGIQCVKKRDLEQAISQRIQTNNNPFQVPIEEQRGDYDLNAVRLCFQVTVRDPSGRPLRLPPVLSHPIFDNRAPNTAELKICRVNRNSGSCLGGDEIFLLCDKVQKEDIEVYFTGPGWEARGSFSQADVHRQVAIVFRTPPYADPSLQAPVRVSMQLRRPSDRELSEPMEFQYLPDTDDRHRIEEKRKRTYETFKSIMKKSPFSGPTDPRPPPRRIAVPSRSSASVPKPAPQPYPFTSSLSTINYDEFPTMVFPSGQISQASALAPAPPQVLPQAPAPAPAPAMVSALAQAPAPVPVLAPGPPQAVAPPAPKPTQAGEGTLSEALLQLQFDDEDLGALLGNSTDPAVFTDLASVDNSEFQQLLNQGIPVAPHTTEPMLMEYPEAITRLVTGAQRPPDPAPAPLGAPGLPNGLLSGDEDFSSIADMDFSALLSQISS

Molecule: Oc1c2ccccc2c2c3c(cccc13)N=N2 [SP600125]
- guggulsterone induced cytotoxicity in combination with JNK inhibitor [1]: blocks guggulsterone induced cytotoxicity

- binding result [2]: binds
B1: NF-κB p50 subunit (NF-κB1) in nuclear extracts of TNF-treated human H1299 cells (other, UniProt P19838 1-433, looked up)
chain: MAEDDPYLGRPEQMFHLDPSLTHTIFNPEVFQPQMALPTDGPYLQILEQPKQRGFRFRYVCEGPSHGGLPGASSEKNKKSYPQVKICNYVGPAKVIVQLVTNGKNIHLHAHSLVGKHCEDGICTVTAGPKDMVVGFANLGILHVTKKKVFETLEARMTEACIRGYNPGLLVHPDLAYLQAEGGGDRQLGDREKELIRQAALQQTKEMDLSVVRLMFTAFLPDSTGSFTRRLEPVVSDAIYDSKAPNASNLKIVRMDRTAGCVTGGEEIYLLCDKVQKDDIQIRFYEEEENGGVWEGFGDFSPTDVHRQFAIVFKTPKYKDINITKPASVFVQLRRKSDLETSEPKPFLYYPEIKDKEEVQRKRQKLMPNFSDSFGGGSGAGAGGGGMFGSGGGGGGTGSTGPGYSFPHYGFPTYGGITFHPGTTKSNAGMKHG
